Test results: US20150190461A1, “DOSING INSTRUCTIONS FOR ENDOTOXIN-BINDING LIPOPEPTIDES” (priority 2012, published 2015)

Tests used:
[1] = human, in vivo; cited from earlier work
blood cells = test: Cytokine batch (batch test II): cytokine release by blood cells in LPS-spiked plasma; assay type: cell-based; settings: PMB 250, 500, 1000 ng/ml; plasma spiked with LPS (E. coli); 4 hours of incubation
Method: Also to be studied is to what extent this endotoxin elimination has the consequence of inhibiting the release of cytokines (batch test II).
A blood donation was taken in 9 blood-donation tubes (9 ml each) and spiked with 5 IU heparin. The plasma was centrifuges, and the cell pellet as incubated on the rolling mixer. The plasma was spiked with LPS and used for batch test I: […]

Substance	serum half-life [1] [h]	inhibition of cytokine release (TNF-alpha, IL-1beta, IL-6, IL-8) by the blood cells (blood cells)	inhibition of the key mediator TNF-alpha (blood cells)
colistin	6 to 7.4		
polymyxin B [PMB]		strong inhibition	especially pronounced
